According to ChEMBL document CHEMBL1127747, “The effect of the aromatic rings of taxol on biological activity and solution conformation: synthesis and evaluation of saturated taxol and taxotere analogues” (1994):

Legend:
[1] = In vitro cytotoxic activity was evaluated by microtubule assembly assay relative to taxol; ED50/ED50; type: functional
[2] = test system: B16; assay: In vitro cytotoxic activity was evaluated against B16 melanoma cells relative to taxol; ED50/ED50; type: functional

| Structure (SMILES) | Ratio [1] | Ratio [2] |
| --- | --- | --- |
| CC(=O)O[C@H]1C(=O)[C@@]2(C)C([C@H](OC(=O)C3CCCCC3)[C@]3(O)C[C@H](OC(=O)[C@H](O)C(NC(=O)C4CCCCC4)C4CCCCC4)C(C)=C1C3(C)C)[C@]1(OC(C)=O)CO[C@@H]1C[C@@H]2O (some centres not stated) | 0.47 | 1.6 |
| CC(=O)O[C@H]1C(=O)[C@@]2(C)C([C@H](OC(=O)c3ccccc3)[C@]3(O)C[C@H](OC(=O)[C@H](O)C(NC(=O)c4ccccc4)C4CCCCC4)C(C)=C1C3(C)C)[C@]1(OC(C)=O)CO[C@@H]1C[C@@H]2O (some centres not stated) | 0.29 | 0.91 |
| CC(=O)O[C@H]1C(=O)[C@@]2(C)C([C@H](OC(=O)c3ccccc3)[C@]3(O)C[C@H](OC(=O)[C@H](O)C(NC(=O)OC(C)(C)C)c4ccccc4)C(C)=C1C3(C)C)[C@]1(OC(C)=O)CO[C@@H]1C[C@@H]2O (some centres not stated) | 0.55 | 0.23 |
| CC(=O)O[C@H]1C(=O)[C@@]2(C)C([C@H](OC(=O)C3CCCCC3)[C@]3(O)C[C@H](OC(=O)[C@H](O)C(NC(=O)OC(C)(C)C)c4ccccc4)C(C)=C1C3(C)C)[C@]1(OC(C)=O)CO[C@@H]1C[C@@H]2O (some centres not stated) | 0.67 | 1.1 |
| CC(=O)O[C@@]12CO[C@@H]1C[C@H](O)[C@@]1(C)C(=O)[C@H](O)C3=C(C)[C@@H](OC(=O)[C@H](O)[C@@H](NC(=O)OC(C)(C)C)c4ccccc4)C[C@@](O)([C@@H](OC(=O)c4ccccc4)[C@H]21)C3(C)C.O.O.O [DOCETAXEL] | 0.45 | 0.41 |
| CC(=O)O[C@H]1C(=O)[C@@]2(C)[C@H]([C@H](OC(=O)c3ccccc3)[C@]3(O)C[C@H](OC(=O)[C@H](O)[C@@H](NC(=O)c4ccccc4)c4ccccc4)C(C)=C1C3(C)C)[C@]1(OC(C)=O)CO[C@@H]1C[C@@H]2O [PACLITAXEL] | 1 | 1 |
